Reference: patent US20080200491A1, “1,2-Dihydro-Spiro[3H-Indole-3,4'-Piperidine] Compounds, as Modulators of the Mas Receptor Novel” (priority 2005, published 2008)
Entries after “also recorded” stand apart in the source; their conditions may differ.

Key:
[1] = target: T1, Mas receptor (Homo sapiens, UniProt P04201); experiment: Mas receptor IP3 assay (inverse agonist assay); assay type: cell-based; set-up: expressed in transfected cells; conditions: for IC50: n = 2
T1 sequence (P04201 1-325): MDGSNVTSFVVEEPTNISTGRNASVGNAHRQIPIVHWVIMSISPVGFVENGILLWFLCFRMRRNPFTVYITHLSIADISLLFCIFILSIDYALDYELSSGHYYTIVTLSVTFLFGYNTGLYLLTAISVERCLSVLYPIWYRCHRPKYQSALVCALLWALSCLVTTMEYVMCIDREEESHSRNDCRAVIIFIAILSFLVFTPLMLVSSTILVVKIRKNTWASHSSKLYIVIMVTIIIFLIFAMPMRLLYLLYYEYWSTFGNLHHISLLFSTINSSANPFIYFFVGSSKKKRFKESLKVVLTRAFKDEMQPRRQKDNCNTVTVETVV
Experimental: The Mas receptor IP3 assay was performed using a mammalian cell line (HEK293) which was transfected with a plasmid containing the human Mas receptor and selected for stable expression of the receptor. […] To achieve this, Mas receptor expression levels were increased by transiently transfecting the same Mas receptor stable cell line with additional human Mas receptor plasmid DNA following standard procedures. These cells were used in the Mas receptor IP3 assay approximately 24 hours post-transfection.
Cells were split into 96-well plates (50,000 cells/well) and allowed to attach for a period of 6 hours. The growth medium was then replaced with medium supplemented with 4 μCi/mL [3H]myo-inositol (100 μl; Perkin Elmer Life Sciences) and the cells were allowed to incubate for approximately 20 hours. Test compounds were serially diluted in inositol-free media containing 10 mM LiCl. The media in the plates was removed by aspiration, replaced with these test compound solutions and incubated at 37° C. for 1 hour.
Following this incubation, the media was removed by aspiration and replaced with buffer containing 0.1M formic acid. The plates were then frozen overnight at −80° C. to achieve complete cell lysis.
The following day, the assay plates were thawed at room temperature. The thawed contents were then transferred to 96-well filter plates (Nillipore, Multiscreen) pre-loaded with resin (Biorad, AG1-X8 100-200 mesh, formate form). The plate was filtered using a vacuum manifold and the resin was washed multiple times with water. An elution buffer was then applied (200 μl, 0.2M Ammonium formate/0.1M formic acid) and the resulting eluent was collected, under vacuum, in a 96-well collection plate. Aliquots of the eluent (80 μl) were transferred to filter plates (Whatman, Unifilter GF/C) and dried in a 45° C. oven overnight. Dried plates were counted on a scintillation counter following the addition of an appropriate scintillant (Perkin Elmer Life Sciences, Optiphase Supermix or Hi-Safe 3).

[2] = tested on: isolated rat aortic rings; experiment: Angiotensin II induced vasoconstriction in isolated rat aortic rings; conditions: pretreatment 15 min; Angiotensin II 1 uM; same doses also tested against norepinephrine 1 uM; FIG. 6
Experimental: Sprague-Dawley rats (250-300 g) were euthanized via CO2 chamber. […] The excess adventitial tissue was carefully removed and the endothelium was sloughed off by rinsing with buffer via syringe. The vessel was then cut into 2-3 mm rings and mounted on wire stirrups connected to force transducers (World Precision Instruments, Myobath 4 channel system, FORT-10) to record changes in isometric force. The aortic rings were then placed in 15 mL organ baths filled with buffer at 37° C. with continuous aeration (95% O2 and 5% CO2)
The rings were left to equilibrate in buffer for 30 minutes. A resting tension of 4 g was applied and the rings were allowed to equilibrate for 1 hour. During the equilibration period, the buffer was changed every 30 minutes. After equilibration was complete, the aortic rings were tested for viability and maximal contraction response by addition of 50 mM KCl.
Aortic rings were contracted with AngiotensinII (1 uM) Sigma, St Louis, Mo. and the isometric force recorded. […] The aortic rings were then treated with the agonist, AngiotensinII (1 uM), and the change in isometric force was recorded. […]
Data for each group (Compound S75 concentration) was from n=4 aortic rings. Change in aortic tension after AngiotensinII treatment was expressed as a percentage to 50 mM KCL in order to normalize tension for each aortic ring.

[3] = tested on: isolated rat hearts; experiment: Ischemia-reperfusion assay in isolated adult rat hearts (Langendorff apparatus)
Experimental: Male Sprague-Dawley rats (300-350 g body weight) were anesthetized with Inactin (100 mg/kg IP) 20 minutes prior to surgery. The chest wall was opened and the heart was rapidly excised and immediately placed into ice-cold Krebs-Henseleit (KH) buffer (118 mM NaCl, 4.7 mM KCl, 1.2 mM MgSO4, 1.2 mM KH2PO4, […], 25 mM NaHCO3, 11 mM glucose, 1 mM pyruvate, and 0.005 mM EDTA) to produce cardiac arrest. The aorta was then cannulated and the heart retrogradely perfused with KH buffer maintained at 37° C. in a reservoir bubbled with 95% O2/5% CO2 (pH7.4) on the Langendorff apparatus at a constant pressure of 70 mmHg. Myocardial temperature was maintained at 37° C. by partially submerging the heart into a water-jacketed chamber filled with KH buffer. A water filled latex balloon attached to a metal cannula and inserted into the left ventricle via the mitral valve and connected to a pressure transducer (Powerlab, ADInstruments, Inc) was used for measurement of left ventricular pressure. The balloon was initially inflated to an end-diastolic pressure of 10 mmHg. After allowing 20 minutes for equilibration, rat hearts were subjected to 10 minutes of KH buffer containing drug or vehicle followed by 30 minutes of ischemia followed by 30 minutes of reperfusion. The difference between peak-systolic and end diastolic pressures, or left ventricular developed pressure (LVDP) was calculated as an index of contractile function and measured just prior to ischemia and at 10, and 30 minutes of reperfusion. Percent recovery of LV function [(LVDP post reperfusion/LVDP pre-ischemia)[…]] was averaged across 5 vehicle and 4 drug treated hearts and one-way anova with Newman-Keuls Multiple Comparison Test was used to determine statistical significance.
Epicardial electrogram recordings were also taken from the isolated rat hearts used in FIGS. 2 and 3. Briefly, silver wire electrodes were placed on the right atrium and the apex of the left ventricle, allowing an epicardial electrogram to be recorded. Premature ventricular contraction (PVC), ventricular tachycardia and ventricular fibrillation were common arrhythmias observed during reperfusion following 30 minutes of global ischemia. Hearts were considered positive for reperfusion arrhythmias if ventricular arrhythmias were sustained for greater than 30 seconds during the first 5 minutes of reperfusion.

[4] = tested on: blood pressure in rats; experiment: Blood pressure measurement in rats by telemetry; assay type: in vivo, rat; conditions: conscious rats, IP injection, FIG. 5
Experimental: Cardiac parameters were measured by small transmitting devices, (Data Sciences PhysioTel Telemetry devices), implanted in rats. The implanted transmitting devices were used to measure blood pressure in freely moving conscious animals. There are no external connections or tethering devices that can inhibit animal movement and induce unnecessary stress, which can affect the outcome of a study.
This procedure was performed under modified aseptic conditions. Rats were anesthetized with Isoflurane gas that ranged in concentration from 1.5-2.0%. A cardiac telemetry device was implanted into the peritoneal cavity with a pressure sensing catheter situated no more than 2 cm inside the descending aorta. This was accomplished as follows: The rat was shaved and the incision site was prepared with an iodine solution. The rat was then placed on a heating pad to maintain a constant body temp of 38+/−0.5° C., and covered with a sterile drape. A 6 cm midline abdominal incision was made to provide access to the implantation area. […] The rats were monitored for 7 days to ensure proper recovery.
On the test day, injections with either vehicle or with test compound were administered via IP injection in volumes of ˜250 μl. Animals were monitored with a resolution of approximately one measurement/min for 60 minutes before injection of vehicle or compound and for about 120 minutes after injection.

[5] = target: Mas receptor; conditions: Santos et al., PNAS 2003; cited from earlier work
[6] = target: T1, Mas receptor; conditions: Dong et al., Cell 2001; cited from earlier work

Work on `CC(C)c1ccc2c(c1)C1(CCN(CCC(F)(F)F)CC1)CN2C(=O)c1c(F)cccc1F` [Compound 1, 1′-(3,3,3-trifluoro-propyl)-1,2-dihydro-5-isopropyl-1-(2,6-difluoro-benzoyl)-spiro[3H-indole-3,4′-piperidine]] yielded an IC50 [1] of 28.6 nM.
`CCCN1CCC2(CC1)CN(C(=O)c1c(F)cccc1F)c1ccc(C(C)(C)C)cc12` [Compound 4, 1′-(propyl)-1,2-dihydro-5-tert-butyl-1-(2,6-difluoro-benzoyl)-spiro[3H-indole-3,4′-piperidine]] showed an IC50 [1] of 35.1 nM.
In the case of `C=CCN1CCC2(CC1)CN(C(=O)c1cccc(F)c1F)c1ccc(F)cc12` [Compound S75, 1′-(allyl)-1,2-dihydro-5-fluoro-1-(2,3-difluoro-benzoyl)-spiro[3H-indole-3,4′-piperidine]], the “mode of action at the Mas receptor” value ([1]; FIG. 1) is reported as “inverse agonist”, the “inhibition of angiotensin II induced vasoconstriction” value [2] is reported as “potent and selective inhibition” and the “left ventricle function after reperfusion compared to vehicle treatment” value ([3]; 30 μM, 30 min ischemia, 30 min reperfusion, FIG. 2) is reported as “significant increase in left ventricle function”. For the same molecule, the “level of left ventricle function after reperfusion versus level before ischemia” value ([3]; 30 μM, FIG. 2) was “comparable to the level before ischemia”, the “ischemic contracture: end diastolic pressure (EDP) compared to vehicle treatment” value ([3]; 30 μM, FIG. 3) was “significant decrease in end diastolic pressure” and the early reperfusion arrhythmias ([3]; ventricular arrhythmias sustained > 30 seconds during first 5 minutes of reperfusion, FIG. 4) was “none of the four hearts”. For the same molecule, the “change in blood pressure after treatment” value [4] was “does not raise blood pressure; also recorded: did not result in a significant change in blood pressure”.
For “DRVYIHP [Ang (1-7), H-Asp-Arg-Val-Tyr-Ile-His-Pro-OH]”, the Kd [5] is given as 0.33 nM.
In the case of “a peptide called NPFF, reported to bind the Mas receptor weakly and NPFF1/NPFF2 with high affinity”, the EC50 [6] is given as about 400 nM.
For “angiotensin II: known vasoconstrictor peptide, control compound in the blood pressure study (DRVYIHPF; Angiotensin-2; UniProt P01019 25-32, looked up) [reference compound]”, the “change in blood pressure after treatment” value [4] was “significant increase in blood pressure”.
